Laboratory results taken from patent publication US9393228B2, “Combination of a slow sodium current blocker and a sinus If current inhibitor, and the pharmaceutical compositions containing said combination” (PIERRE FABRE MEDICAMENT, priority 2013, dated 2016).
Structures can show the parent of a compound that is named as a salt.

Tested on: anesthetized rabbits
Test: ST segment elevation by occlusion of the circumflex coronary artery in anesthetized rabbits (anti-ischemic activity, with blood pressure and heart rate)
Type: in vivo, rabbit
Conditions: for Heart rate / Mean blood pressure: 5 minutes after i.v. administration; for Heart rate / Mean blood pressure / effect on heart rate (in words): compound B 0.63 mg/kg; for effect on ST segment elevation (in words): i.v. slow bolus, compound A 0.04 mg/kg or compound B 0.63 mg/kg, 5 min before 5 min circumflex occlusion
Experimental: The anti-ischemic activity of 3-(R)-[3-(2-methoxyphenylthio)-2-(S)-methyl-propyl]amino-3,4-dihydro-2H-1,5-benzoxathiepine combined with ivabradine was evaluated in a model of ST segment elevation by occlusion of the circumflex coronary artery in anesthetized rabbits.
Male rabbits (2.2-2.5 kg) are anesthetized with pentobarbital. A catheter is placed in a carotid artery in order to continuously measure the animal's blood pressure. Blood samples are taken in order to regularly check blood gases and to modify ventilation parameters as needed. The compounds to be tested or the carriers are administered via a catheter placed in an ear vein. An electrocardiogram is recorded, also continuously, in configuration II in order to determine the variations of amplitude of the ST segment. The animal's thorax is opened and a ligature is placed around the left coronary artery (circumflex) in order to induce regional myocardial ischemia (Verscheure et al., 1995). After a period of stabilization of all hemodynamic parameters, the compounds are administered in a slow bolus (1 minute). Five minutes after the compounds are administered, the circumflex artery is occluded for 5 minutes and then the ligature is released. The heart is removed and the risk area (ligatured region of the circumflex artery) is evaluated. Four groups of rabbits are studied: • group receiving carrier: 40% polyethylene 300, 60% physiological saline; • group receiving 3-(R)-[3-(2-methoxyphenylthio)-2-(S)-methyl-propyl]amino-3,4-dihydro-2H-1,5-benzoxathiepine (compound A) at a dose of 0.04 mg/kg; • group receiving ivabradine hydrochloride (compound B) at a dose of 0.63 mg/kg; • group receiving compound A (0.04 mg/kg)+compound B (0.63 mg/kg).
The doses were selected in order to have submaximal pharmacological activities and thus to uncover potential additive or synergistic effects.

| SMILES | Heart rate (compound A 0.04 mg/kg) [bpm] | Mean blood pressure (compound A 0.04 mg/kg) [mmHg] | effect on ST segment elevation (in words) | effect on blood pressure (in words) (i.v., compound A 0.04 mg/kg) | effect on heart rate (in words) (i.v., compound A 0.04 mg/kg) |
| --- | --- | --- | --- | --- | --- |
| COc1ccccc1SC[C@@H](C)CN[C@@H]1COc2ccccc2SC1 [Compound A, 3-(R)-[3-(2-methoxyphenylthio)-2-(S)-methyl-propyl]amino-3,4-dihydro-2H-1,5-benzoxathiepine] | 275 ± 10 | 92 ± 4 | slight inhibition | without changing | without changing |
| COc1cc2c(cc1OC)CC(=O)N(CCCN(C)C[C@H]1Cc3cc(OC)c(OC)cc31)CC2 [Compound B, ivabradine hydrochloride, reference compound] | 211 ± 10 | 92 ± 3 | lower ST segment elevation | – | relatively significant and constant bradycardia |
